# Results published in patent publication US9326973B2, “Hepatitis C virus inhibitors” (priority 2012, dated 2016).
# System: HCV replicon, genotype-1a variant with glutamine 30 changed to glutamate in the NS5A protein
# Assay: microbe, parasite or virus in culture
# Assay type: cell-based, HCV genotype 1a
# Conditions: HCV replicon genotype 1a Q30E (Q→E) variant; test compound titrated with an NS5A-targeting compound (BMS-790052 fixed at 200 nM); ranking of synergist activity
# Method in brief: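 Synergy was assessed by combining several fixed amounts of an NS5A-targeting compound with a titration of the second compound of interest.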
row,Structure (SMILES),Fold-Synergistic 1a (Q30E) [fold]
1,CC(C)(C(=O)N[C@H](c1nc(-c2ccc(-c3ccc(-c4c[nH]c([C@@H](NC(=O)C(C)(C)C(=O)N5CC6CC6C5)C(C)(C)C)n4)cc3)cc2)c[nH]1)C(C)(C)C)C(=O)N1CC2CC2C1 (stereo partly drawn) [Compound W-153],>100
2,C[C@@H]1CN(C(=O)C(C)(C)C(=O)N[C@H](c2nc(-c3ccc(-c4ccc(-c5c[nH]c([C@@H](NC(=O)C(C)(C)C(=O)N6C[C@@H](C)O[C@@H](C)C6)C(C)(C)C)n5)cc4)cc3)c[nH]2)C(C)(C)C)C[C@H](C)O1 [Compound W-154],>100
3,CC(C)(C(=O)N[C@H](c1nc(-c2ccc(-c3ccc(-c4c[nH]c([C@@H](NC(=O)C(C)(C)C(=O)NC56CC(C5)C6)C(C)(C)C)n4)cc3)cc2)c[nH]1)C(C)(C)C)C(=O)NC12CC(C1)C2 [Compound W-155],>100
4,CCN(CC1CC1)C(=O)C(C)(C)C(=O)N[C@H](c1nc(-c2ccc(-c3ccc(-c4c[nH]c([C@@H](NC(=O)C(C)(C)C(=O)N(CC)CC5CC5)C(C)(C)C)n4)cc3)cc2)c[nH]1)C(C)(C)C [Compound W-156],>100
5,CCN(CCOC)C(=O)C(C)(C)C(=O)N[C@H](c1nc(-c2ccc(-c3ccc(-c4c[nH]c([C@@H](NC(=O)C(C)(C)C(=O)N(CC)CCOC)C(C)(C)C)n4)cc3)cc2)c[nH]1)C(C)(C)C [Compound W-157],>10
6,CCN(CCC#N)C(=O)C(C)(C)C(=O)N[C@H](c1nc(-c2ccc(-c3ccc(-c4c[nH]c([C@@H](NC(=O)C(C)(C)C(=O)N(CC)CCC#N)C(C)(C)C)n4)cc3)cc2)c[nH]1)C(C)(C)C [Compound W-158],>100
7,C[C@@H]1CN(C(C)(C)C(=O)N[C@H](c2nc(-c3ccc(-c4ccc(-c5c[nH]c([C@@H](NC(=O)C(C)(C)N6C[C@@H](C)O[C@@H](C)C6)C(C)(C)C)n5)cc4)cc3)c[nH]2)C(C)(C)C)C[C@H](C)O1 [Compound W-160],>10
8,CC(C)[C@H](NC(=O)C(C)(C)N1C[C@@H](C)O[C@@H](C)C1)c1nc(-c2ccc(-c3ccc(-c4c[nH]c([C@@H](NC(=O)C(C)(C)N5C[C@@H](C)O[C@@H](C)C5)C(C)C)n4)cc3)cc2)c[nH]1 [Compound W-161],>100
9,C[C@@H]1CN(C(C)(C)C(=O)N[C@H](c2nc(-c3ccc(-c4ccc(-c5c[nH]c([C@@H](NC(=O)C(C)(C)N6C[C@@H](C)O[C@@H](C)C6)C6(C)CC6)n5)cc4)cc3)c[nH]2)C2(C)CC2)C[C@H](C)O1 [Compound W-162],>100
10,CC1(C)CCCC(C)(C(=O)N[C@H](c2nc(-c3ccc(-c4ccc(-c5c[nH]c([C@@H](NC(=O)C6(C)CCCC(C)(C)O6)C(C)(C)C)n5)cc4)cc3)c[nH]2)C(C)(C)C)O1 (stereo partly drawn) [Compound W-165],>100
11,CC1(C)CCCC(C)(C(=O)N[C@H](c2nc(-c3ccc(-c4ccc(-c5c[nH]c([C@@H](NC(=O)C6(C)CCCC(C)(C)O6)C(C)(C)C)n5)cc4)cc3)c[nH]2)C(C)(C)C)O1 (stereo partly drawn) [Compound W-167],>100
12,CC1(C)CCCC(C)(C(=O)N[C@H](c2nc(-c3ccc(-c4ccc(-c5c[nH]c([C@@H](NC(=O)C6(C)CCCC(C)(C)O6)C(C)(C)C)n5)cc4)cc3)c[nH]2)C(C)(C)C)O1 (stereo partly drawn) [Compound W-168],>10
13,CC(C)(C)[C@H](NC(=O)[C@H]1C[C@@](C)(O)C1)c1nc(-c2ccc(-c3ccc(-c4c[nH]c([C@@H](NC(=O)[C@H]5C[C@@](C)(O)C5)C(C)(C)C)n4)cc3)cc2)c[nH]1 [Compound W-169],>100
14,CC(C)(C)[C@H](NC(=O)[C@H]1C[C@](C)(O)C1)c1nc(-c2ccc(-c3ccc(-c4c[nH]c([C@@H](NC(=O)[C@H]5C[C@](C)(O)C5)C(C)(C)C)n4)cc3)cc2)c[nH]1 [Compound W-170],>100
15,CC(C)(C)[C@H](NC(=O)C1CC(=O)C1)c1nc(-c2ccc(-c3ccc(-c4c[nH]c([C@@H](NC(=O)C5CC(=O)C5)C(C)(C)C)n4)cc3)cc2)c[nH]1 [Compound W-171],>100
16,CC(C)[C@H](NC(=O)C1CC(=O)C1)c1nc(-c2ccc(-c3ccc(-c4c[nH]c([C@@H](NC(=O)C5CC(=O)C5)C(C)C)n4)cc3)cc2)c[nH]1 [Compound W-172],>10
17,CC(C)(C)[C@H](NC(=O)C1CCC(=O)CC1)c1nc(-c2ccc(-c3ccc(-c4c[nH]c([C@@H](NC(=O)C5CCC(=O)CC5)C(C)(C)C)n4)cc3)cc2)c[nH]1 [Compound W-173],>100
18,CC1([C@H](NC(=O)C2CC(=O)C2)c2nc(-c3ccc(-c4ccc(-c5c[nH]c([C@@H](NC(=O)C6CC(=O)C6)C6(C)CC6)n5)cc4)cc3)c[nH]2)CC1 [Compound W-174],>100
19,CC(C)(C)[C@H](NC(=O)[C@H]1CC[C@@](C)(O)CC1)c1nc(-c2ccc(-c3ccc(-c4c[nH]c([C@@H](NC(=O)[C@H]5CC[C@@](C)(O)CC5)C(C)(C)C)n4)cc3)cc2)c[nH]1 [Compound W-175],>100
20,CC(C)[C@H](NC(=O)C1CC2(C1)OCCO2)c1nc(-c2ccc(-c3ccc(-c4c[nH]c([C@@H](NC(=O)C5CC6(C5)OCCO6)C(C)C)n4)cc3)cc2)c[nH]1 (stereo partly drawn) [Compound W-176],>100

row,Structure (SMILES),Fold-Synergistic 1a (Q30E) [fold]
1,CC(C)(C)[C@H](NC(=O)C1CC2(C1)OCCO2)c1nc(-c2ccc(-c3ccc(-c4c[nH]c([C@@H](NC(=O)C5CC6(C5)OCCO6)C(C)(C)C)n4)cc3)cc2)c[nH]1 (stereo partly drawn) [Compound W-178],>100
2,CC(C)(C)[C@H](Nc1nc(C(F)(F)F)c(Cl)s1)c1nc(-c2ccc(-c3ccc(-c4c[nH]c([C@@H](Nc5nc(C(F)(F)F)c(Cl)s5)C(C)(C)C)n4)cc3)cc2)c[nH]1 [Compound W-180],<10
3,CC(C)[C@H](NC(=O)[C@@H]1C[C@@H](F)CN1C(=O)OC(C)(C)C)c1nc(-c2ccc(-c3ccc(-c4c[nH]c([C@@H](NC(=O)[C@@H]5C[C@@H](F)CN5C(=O)OC(C)(C)C)C(C)C)n4)cc3)cc2)c[nH]1 [Compound W-181],>100
4,CC(C)(C)OC(=O)N1C[C@H](F)C[C@H]1C(=O)N[C@H](c1nc(-c2ccc(-c3ccc(-c4c[nH]c([C@@H](NC(=O)[C@@H]5C[C@@H](F)CN5C(=O)OC(C)(C)C)C5(C)CC5)n4)cc3)cc2)c[nH]1)C1(C)CC1 [Compound W-182],>100
5,CC(C)(C)[C@H](Nc1nc2ccccc2s1)c1nc(-c2ccc(-c3ccc(-c4c[nH]c([C@@H](Nc5nc6ccccc6s5)C(C)(C)C)n4)cc3)cc2)c[nH]1 [Compound W-183],>10
6,C[C@H]1CCN(C(=O)C(=O)N2CCC(F)(F)CC2)C1c1nc(-c2ccc(-c3ccc(-c4c[nH]c([C@@H]5[C@@H](C)CCN5C(=O)C(=O)N5CCC(F)(F)CC5)n4)cc3)cc2)c[nH]1 (stereo partly drawn) [Compound W-186],>100
7,C[C@H]1CCN(C(=O)C(=O)N2CCC(F)(F)CC2)C1c1nc(-c2ccc(-c3ccc(-c4c[nH]c([C@@H]5[C@@H](C)CCN5C(=O)C(=O)N5CCC(F)(F)CC5)n4)cc3)cc2)c[nH]1 (stereo partly drawn) [Compound W-187],>100
8,C[C@H]1CCN(C(=O)C2CCC(F)(F)CC2)[C@@H]1c1nc(-c2ccc(-c3ccc(-c4c[nH]c([C@@H]5[C@@H](C)CCN5C(=O)C5CCC(F)(F)CC5)n4)cc3)cc2)c[nH]1 [Compound W-188],>10
9,COc1cc2ccccc2c(C(=O)N2CCCC2c2ncc(-c3ccc(-c4ccc(-c5cnc(C(NC(=O)C(C)(C)C)C(C)C)[nH]5)cc4)cc3)[nH]2)n1 (stereo not drawn) [Compound Y-13],>100
10,Cc1ccc(S(=O)(=O)N[C@H](c2ncc(-c3ccc(-c4ccc(-c5cnc([C@@H](NS(=O)(=O)c6ccc(C)cc6)C(C)C)[nH]5)cc4)cc3)[nH]2)C(C)C)cc1 [Compound Y-58],>100
11,CC(C)(C)[C@H](NC(=O)C1C2C3CCC(C3)C12)c1nc(-c2ccc(-c3ccc(-c4c[nH]c([C@@H](NC(=O)C5C6C7CCC(C7)C56)C(C)(C)C)n4)cc3)cc2)c[nH]1 (stereo partly drawn) [Compound Y-62],>100
12,COC(C)(C)C(=O)N[C@H](c1nc(-c2ccc(-c3ccc(-c4c[nH]c([C@@H](NC(=O)C(C)(C)OC)C5(C)CC5)n4)cc3)cc2)c[nH]1)C1(C)CC1 [Compound Y-63],>100
13,CC(C)(OCC(F)F)C(=O)N[C@H](c1nc(-c2ccc(-c3ccc(-c4c[nH]c([C@@H](NC(=O)C(C)(C)OCC(F)F)C5(C)CC5)n4)cc3)cc2)c[nH]1)C1(C)CC1 [Compound Y-64],>100
14,CC(C)(C)C(=O)N[C@H](c1ncc(-c2ccc(-c3ccc(-c4cnc([C@@H](NC(=O)C(C)(C)C)C(C)(C)CF)[nH]4)cc3)cc2)[nH]1)C(C)(C)CF [Compound Y-68],>100
15,CC(C)(C)[C@H](NC(=O)C1CCC(C(F)F)CC1)c1nc(-c2ccc(-c3ccc(-c4c[nH]c([C@@H](NC(=O)C5CCC(C(F)F)CC5)C(C)(C)C)n4)cc3)cc2)c[nH]1 (stereo partly drawn) [Compound Y-71],>100
16,CC(C)(C)[C@H](NC(=O)c1ccccc1O)c1nc(-c2ccc(-c3ccc(-c4c[nH]c([C@@H](NC(=O)c5ccccc5O)C(C)(C)C)n4)cc3)cc2)c[nH]1 [Compound Y-72],>100
17,CC(C)(C)[C@H](NC(=O)Cc1ccccc1OC(F)(F)F)c1nc(-c2ccc(-c3ccc(-c4c[nH]c([C@@H](NC(=O)Cc5ccccc5OC(F)(F)F)C(C)(C)C)n4)cc3)cc2)c[nH]1 [Compound Y-73],>100
18,CC(C)(C)[C@H](NC(=O)C12CCC(CC1)CO2)c1nc(-c2ccc(-c3ccc(-c4c[nH]c([C@@H](NC(=O)C56CCC(CC5)CO6)C(C)(C)C)n4)cc3)cc2)c[nH]1 [Compound Y-74],>100
19,CC(C)(C)[C@H](NC(=O)[C@@]1(C)CC(F)(F)CCO1)c1nc(-c2ccc(-c3ccc(-c4c[nH]c([C@@H](NC(=O)[C@@]5(C)CC(F)(F)CCO5)C(C)(C)C)n4)cc3)cc2)c[nH]1 [Compound Y-75],>100
